The numbers were not newly measured in PMC9921896 (Molecules, 2023), which cites them from elsewhere.

For series [1], the system named is estrogenicity. The settings on record: cited from earlier work.
For series [2] the following is noted: cited from earlier work.
For series [3] the following is noted: cited from earlier work. This is another data set of the same source.

Turning to `C=C(CC(C)(C)c1ccc(O)cc1)c1ccc(O)cc1` [MBP, 4-methyl-2,4-bis(p-hydroxyphenyl) pent-1-ene, reference compound], the “estrogenicity relative to BPA” value in series [1] (metabolite formed with rat liver S9 fraction) is reported as “several-thousand-fold”.
Turning to `CC(C)(c1ccc(O)cc1)c1ccc(O[C@@H]2O[C@H](C(=O)O)[C@@H](O)[C@H](O)[C@H]2O)cc1` [BPA-based Glucuronide metabolite, reference compound], in series [1] (BPA glucuronide), the estrogenicity result is “non-estrogenic”.
Regarding `CC(C)(c1ccc(O)cc1)c1ccc(O)cc1` [BPA, Bisphenol A], in series [2] (CLARITY-BPA core study), the “highest dose level with no negative impact on the health” value is recorded as 25,000 μg kg bw^−1 day^−1. The “lowest-observed-adverse-effect level (LOAEL)” value in series [2] (suggested from low-dose effects) is reported as 2.5 μg (kg bw)^−1 day^−1. In addition, the “new TDI (draft opinion)” value in series [3] (EFSA draft opinion) is 0.04 ng (kg bw)^−1 day^−1. Besides, the t-TDI in series [3] (set by EFSA in 2015) is listed as 4 μg (kg bw)^−1 day^−1.
